# Like-named read-outs stand apart in the source and are kept apart here.
# Experiments:
# [1] = system: MCF-10 (normal mammary gland cells); test: Cytotoxic activity against normal cells, SRB test; assay type: cell-based
# Experimental: (§1) 4.3. Cytotoxic activity evaluation against normal cell lines with diverse tissue origins using the SRB test:
# (§2) • a) normal mouse fibroblasts (BALB/3T3), • b) normal mammary gland cells (MCF-10), • c) normal human epithelium (HLMEC)
# (§3) The stock solution of the tested compound with concentration of 20 mg/ml was prepared day before the analysis by dissolving the preparation in DMSO, followed by storage in -20°C. After 24 hours the preparation was thawed and diluted with the culture medium. The compounds were tested in concentrations of 100, 10, 1, 0.1 0.01 µg/ml.
# (§4) The following human cancer cell lines were used in the study: HL-60 (promyelocytic leukemia), HL-60/MX2 (promyelocytic leukemia, line resistant to mitoxantrone), MCF7 (mammary gland cancer), LoVo (colorectal cancer), LoVo/Dx (colorectal cancer with multidrug resistance), HCV29T (bladder cancer), A498 (kidney cancer), A549 (lung cancer) and LNCaP (prostate cancer), as well as normal cell lines: BALB3T3 (normal mouse fibroblasts), MCF-10 (normal mammary gland cells) and HLMEC (normal human endothelium).
# (§5) The cells in the phase of logarithmic growth were seeded on a 96-well plate (Sarsted) in quantity of 1 x 10^4 cells/well, and then incubated at 37°C, 5% CO2 for 24 hours. Subsequently, the tested compound was added in different concentrations and the incubation was carried out. […] For each assay the samples containing predetermined preparation concentrations were applied in triplicates. The experiments were repeated 3-5 times.
# (§6) Sulphorhodamine B (SRB) is an anionic dye which binds to […] amino acids of cellular proteins. The determination of cytotoxic activity in the assay is based on the measurement of the amount of cellular proteins.
# (§7) After the incubation is finished the attached cells are fixed with cold 50% TCA (4°C) at 4°C for 1 hour. Next, each well is washed with water and air dried, repeating this step 5 times.
# (§8) 0.4% SRB solution (Sigma-Aldrich) dissolved in 1% acetic acid is added consecutively to each well and the staining is carried out for 30 minutes. The unbound dye is removed and the cells are washed 4 times with 1% acetic acid. Next, the plate is air dried for about 5 minutes.
# (§9) The bound dye is dissolved by adding 10 mM Tris-base to each well and then OD is determined for wavelength 540 nm (Multiscan RC photometer, Labsystes, Helsinki).
# [2] = system: Balb/3T3 (normal mouse fibroblasts); test: Cytotoxic activity against normal cells, SRB test; assay type: cell-based; conditions: Balb/3T3, 72-hour culture
# Experimental: as §1, §2, §3, §4, §5, §6, §7, §8, §9
# [3] = system: HLMEC (normal human epithelium); test: Cytotoxic activity against normal cells, SRB test; assay type: cell-based; conditions: 72-hour culture
# Experimental: as §1, §2, §3, §4, §5, §6, §7, §8, §9
# [4] = target: T1, pig kidney microsomal leucyl aminopeptidase, Type IV-S (Sus scrofa, UniProt P15145); test: Leucyl aminopeptidase inhibition (L-leucine p-nitroanilide substrate, absorbance 405 nm); assay type: biochemical; conditions: pre-incubation 30 minutes at 37 °C, pH 8.5; IC50 by linear regression
# T1 construct: pig kidney microsomal leucyl aminopeptidase, Type IV-S (Sigma-Aldrich) 3.5 mg of protein/ml; purchased Sigma-Aldrich; host or cells: pig kidney (microsomal fraction)
# T1 sequence (P15145 1-963): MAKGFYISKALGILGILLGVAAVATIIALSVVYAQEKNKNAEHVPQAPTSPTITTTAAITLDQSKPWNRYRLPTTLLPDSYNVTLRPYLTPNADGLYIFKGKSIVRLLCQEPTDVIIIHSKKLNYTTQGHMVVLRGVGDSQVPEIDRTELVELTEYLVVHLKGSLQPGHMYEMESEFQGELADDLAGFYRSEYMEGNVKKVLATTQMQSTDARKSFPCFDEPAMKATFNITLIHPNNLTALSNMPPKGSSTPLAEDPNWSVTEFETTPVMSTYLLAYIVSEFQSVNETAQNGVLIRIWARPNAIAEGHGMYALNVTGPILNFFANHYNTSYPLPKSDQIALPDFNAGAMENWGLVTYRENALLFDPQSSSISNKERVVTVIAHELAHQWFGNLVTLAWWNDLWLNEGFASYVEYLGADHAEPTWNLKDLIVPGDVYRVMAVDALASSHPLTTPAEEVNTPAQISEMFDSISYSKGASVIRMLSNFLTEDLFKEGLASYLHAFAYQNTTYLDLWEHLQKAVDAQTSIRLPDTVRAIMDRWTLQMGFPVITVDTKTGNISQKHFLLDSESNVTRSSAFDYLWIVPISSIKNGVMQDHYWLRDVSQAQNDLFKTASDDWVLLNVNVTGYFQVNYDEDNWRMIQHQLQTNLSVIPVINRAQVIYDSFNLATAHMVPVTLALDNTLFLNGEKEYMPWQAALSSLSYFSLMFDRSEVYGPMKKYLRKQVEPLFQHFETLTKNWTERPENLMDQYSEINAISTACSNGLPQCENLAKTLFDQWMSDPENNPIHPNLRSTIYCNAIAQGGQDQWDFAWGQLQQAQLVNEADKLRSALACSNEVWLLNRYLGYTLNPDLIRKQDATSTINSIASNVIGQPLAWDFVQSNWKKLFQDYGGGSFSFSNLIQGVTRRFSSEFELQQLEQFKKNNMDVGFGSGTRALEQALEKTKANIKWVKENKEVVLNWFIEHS
# Experimental: Leucyl aminopeptidase inhibition according to Cahan R., Hetzroni E., Nisnevitch M., Nitzan Y.: Purification and Identification of a Novel Leucine Aminopeptidase from Bacillus Thuringiensis israelensis. Curr. Microbial (2007) 55: 413-419.
# • 1. Enzyme: pig kidney microsomal leucyl aminopeptidase, Type IV-S (Sigma-Aldrich) 3.5 mg of protein/ml, 28 U/mg of protein; diluted with 0.02M Tris-HCl + 0.5 mM CaCl2 buffer pH=8.5 until activity 0.01225U achieved • 2. Substrate: L-leucine p-nitroanilide: 4.2 mg / 269 µl DMSO; solution diluted 1:19 with 0.02 M Tris-HCl buffer, pH = 8.5 + 0.5 mM CaCl2 • 3. 0.02 M Tris-HCl buffer, pH = 8.5 + 0.5 mM CaCl2 • 4. DMSO, inhibitor solution in DMSO
# 5 µl of leucyl aminopeptidase ([…]), 70 µl of Tris, 5 µl of inhibitor solution in different concentrations (in DMSO) were added to the wells of a microtitration plate, followed by pre-incubation for 30 minutes at 37 °C. Next, 20µl of diluted L-leucine p-nitroanilide solution was added, whereupon the reaction mixture was incubated for 20 minutes at 37 °C, with measurement of absorbance changes for wavelength 405 nm (Fluorostar, Omega, BMG Labtech). The control sample for the enzyme contained analogous components, while instead of the inhibitor solution DMSO (5 µl) was added.
# For each inhibitor concentration the percentage inhibition was calculated. The inhibitor concentration required for 50% of enzyme activity inhibition (IC50) was calculated based on linear regression data between the percentage inhibition and the concentration for a given inhibitor.
# A549 (lung cancer) = test: Anti-proliferative activity, SRB test; assay type: cell-based, human; conditions: A549, 72-hour culture
# Description: (§10) 4.1. Anti-proliferative activity evaluation using the SRB test [Skehan et al., J. Natl. Cancer Inst., 82: 1107-1112, 1990] against human cancer cell lines with diverse tissue origins and determination of the IC50 concentration: • a) colorectal cancer LoVo, • b) colorectal cancer LoVo/DX (with multidrug resistance), • c) breast cancer MCF-7, • d) prostate cancer LNCaP, • e) bladder cancer HCV29T, • f) kidney cancer A498, • g) lung cancer A549
# as §3, §4, §5, §6, §7, §8, §9
# HCV29T (bladder cancer) = test: Anti-proliferative activity, SRB test; assay type: cell-based, human; conditions: 72-hour culture
# Description: as §10, §3, §4, §5, §6, §7, §8, §9
# A498 (kidney cancer) = test: Anti-proliferative activity, SRB test; assay type: cell-based, human; conditions: A498, 72-hour culture
# Description: as §10, §3, §4, §5, §6, §7, §8, §9
# [5] = system: Lovo/Dx (colorectal cancer with multidrug resistance); test: Anti-proliferative activity, SRB test; assay type: cell-based, human; conditions: 72-hour culture
# Description: as §10, §3, §4, §5, §6, §7, §8, §9
# MCF-7 (breast cancer) = test: Anti-proliferative activity, SRB test; assay type: cell-based, human
# Description: as §10, §3, §4, §5, §6, §7, §8, §9
# LNCaP (prostate cancer) = test: Anti-proliferative activity, SRB test; assay type: cell-based, human; conditions: 72-hour culture
# Description: as §10, §3, §4, §5, §6, §7, §8, §9
# Lovo (colorectal cancer) = test: Anti-proliferative activity, SRB test; assay type: cell-based, human; conditions: 72-hour culture
# Description: as §10, §3, §4, §5, §6, §7, §8, §9
# [6] = system: HL-60 (promyelocytic leukemia); test: Anti-proliferative activity, MTT test; assay type: cell-based, human; conditions: HL-60, 72-hour culture
# Experimental: (§11) 4.2. Anti-proliferative activity evaluation using the MTT test [Marcinkowska et al.: J. Steroid Biochem. Mol. 76: 71-78, 1998] against human cancer cell lines with diverse tissue origins and determination of the IC50 concentration: • a) promyelocytic leukemia HL-60, • b) promyelocytic leukemia HL-60/MX2 (with multidrug resistance)
# as §3, §4, §5
# (§12) The method involves a measurement of cell number increase inhibition utilizing the redox activity of mitochondria. The determination of biological activity with the MTT (3-(4,5-dimethylthiazol-2-yl)-2,5-diphenyltetrazolium bromide) assay is based on the assumption that reduction of the dye occurs only in viable cells. As a result of mitochondrial dehydrogenase activity the water-soluble tetrazolium salt (thiazolyl blue […] - MTT) is converted to water-insoluble formazan crystals. The quantity of the formed formazan crystals is proportional to the number of cells.
# (§13) 3-4 hours before the end of cell incubation 20 µl of MTT solution (5 mg/ml) was added to each well. Next, 80 µl of dissolving mixture (with the following composition: 225 ml DMF (POCh), 67.5 g SDS (Sigma-Aldrich), 275 ml distilled H2O) was added. After 24 hours, formazan crystals were dissolved and OD of the samples was measured for wavelength 570 nm (Multiskan PC photometer, Labsystem, Helsinki).
# [7] = system: HL-60 MX2 (promyelocytic leukemia with multidrug resistance); test: Anti-proliferative activity, MTT test; assay type: cell-based, human
# Experimental: as §11, §3, §4, §5, §12, §13
compound,measurement,setting,value
"O=C(O)C1Cc2cc(O)c(O)c(O)c2C=N1 (stereo not shown) [Compound 8, 6,7,8-trihydroxy-3,4-dihydroisoquinoline-3-carboxylic acid]",IC50,"[1]; Homo sapiens, MCF10, MCF-10, 72-hour culture, read-out: IC50",18.9 ± 11.4 µg/mL
same,IC50,"[2]; Mus musculus, read-out: IC50",52.5 ± 22.3 µg/mL
same,IC50,"[3]; Homo sapiens, read-out: IC50",33.4 ± 5 µg/mL
same,IC50,[4],3.8 mM
same,IC50,"A549 (lung cancer); Homo sapiens, read-out: IC50",44.3 ± 6.7 µg/mL
same,IC50,"HCV29T (bladder cancer); Homo sapiens, read-out: IC50",28.7 ± 7.2 µg/mL
same,IC50,"A498 (kidney cancer); Homo sapiens, read-out: IC50",40 ± 18.4 µg/mL
same,IC50,"[5]; Homo sapiens, read-out: IC50",30.1 ± 2.3 µg/mL
same,IC50,"MCF-7 (breast cancer); Homo sapiens, MCF7, MCF-7, 72-hour culture, read-out: IC50",18.9 ± 11.4 µg/mL
same,IC50,"LNCaP (prostate cancer); Homo sapiens, read-out: IC50",30.9 ± 5.7 µg/mL
same,IC50,"Lovo (colorectal cancer); Homo sapiens, read-out: IC50",33.6 ± 9.5 µg/mL
same,IC50,"[6]; Homo sapiens, read-out: IC50",27.7 ± 4.3 µg/mL
same,IC50,"[7]; Homo sapiens, HL60/MX2, HL-60 MX2, 72-hour culture, read-out: IC50",33.2 ± 2.7 µg/mL
"N.N.[Cl][Pt][Cl] [Cisplatin, reference compound]",IC50,"[1]; MCF-10, 72-hour culture",0.7 µg/mL
same,IC50,[2],2.4 ± 0.3 µg/mL
same,IC50,[3],2.6 ± 0.3 µg/mL
same,IC50,A549 (lung cancer),3.2 ± 1.0 µg/mL
same,IC50,HCV29T (bladder cancer),2.7 ± 0.6 µg/mL
same,IC50,A498 (kidney cancer),2.8 ± 0.6 µg/mL
same,IC50,[5],3.0 ± 0.7 µg/mL
same,IC50,"MCF-7 (breast cancer); MCF-7, 72-hour culture",3.6 ± 0.6 µg/mL
same,IC50,LNCaP (prostate cancer),6.2 ± 1.3 µg/mL
same,IC50,Lovo (colorectal cancer),2.5 ± 1.3 µg/mL
same,IC50,[6],0.4 ± 0.1 µg/mL
same,IC50,"[7]; HL-60 MX2, 72-hour culture",0.32 ± 0.02 µg/mL

# Source: patent publication EP3027591B1, “NOVEL DERIVATIVES OF A 3,4-DIHYDROISOQUINOLINE-3-CARBOXYLIC ACID HAVING ANTI-CANCER PROPERTIES, A METHOD FOR THEIR SYNTHESIS, PHARMACEUTICAL COMPOSITIONS COMPRISING SAID DERIVATIVES, AND THEIR USE” (Narodowy Instytut Zdrowia Publicznego Panstwowy Zaklad …, priority 2013, dated 2015)
